Reference: patent publication US20240165112A1, “THERAPY FOR THE TREATMENT OF CANCER” (Bristol-Myers Squibb Company, priority 2022, published 2024)

Assays:
Test in all cases: 3D clonogenic assay in patient derived organoids
Type in all cases: cell-based, human
[1] = tested on: CXF2129 organoid, colon cancer; settings: for Combination activity 5 μM Compound 1 (cAUC % reduction): chemotherapy dose titration + 5 μM Compound 1 vs chemotherapy alone; for Combination activity 20 μM Compound 1 (cAUC % reduction): chemotherapy dose titration + 20 μM Compound 1 vs chemotherapy alone
Protocol: (§1) Five tumor cell lines (4T1.2, A549, EMT6, NCI-H460, and HT29) were treated with a range of paclitaxel or 5-FU concentrations in the presence of dimethlylsulfoxide (DMSO), 5 μM Compound 1, or 20 μM Compound 1. Cells were imaged 4 days after treatment and percent confluence was assessed by image quantification. EC50 values for cell confluence were used to assess chemotherapy potency. Eleven patient-derived tumor organoids (MAXFTN449, MAXFTN2990, PAXF1657, PAXF2131, CXF1256, CXF2129, CXF2061, LXFE2478, LXFE690, LXFA677, LXFA644) were seeded in a 3D matrix and treated with a range of paclitaxel, 5-FU, SN38, Gemcitabine, oxaliplatin, and carboplatin concentrations in the presence of DMSO, 5 μM Compound 1, or 20 μM Compound 1. After 8 to 13 days in culture, colonies were stained, imaged, and counted. A dose response curve was generated for chemotherapy alone or chemotherapy in combination with 5 or 20 μM Compound 1. Combination activity was defined as a percentage of the area under the chemotherapy dose response curve (cAUC) for Compound 1 combination groups compared to the cAUC of chemotherapy alone.
(§2) For combination experiments, working stock solutions of all compounds were prepared in DMSO at concentrations of 660-fold the highest test concentration used and stored at −20° C. Platin compounds were prepared freshly on each treatment day. On each day of an experiment, an aliquot of the working stock solutions was used and stored at room temperature prior to and during treatment. First, 1:2 dilutions of 660-fold concentrated working stocks were prepared in DMSO (in case of monotherapy controls), or equal amounts of the compound working stocks were mixed (in case of drug combinations). Then, different dilutions of these 330-fold concentrated solutions were prepared in DMSO to give an 8×2 matrix combination layout with conditions. The DMSO dilutions were further diluted […] into cell culture medium (IMDM, supplemented with 20% (v/v) fetal bovine serum, and 50 μg/mL gentamicin) in an intermediate dilution plate. Finally, 10 μL taken from the intermediate dilution plate were transferred to 140 μL of cells and medium per well of the final assay plate. Thus, the DMSO dilutions used for the mono- and the combination-treatment were diluted 1:660, and the DMSO concentration in the assay was […].
(§3) Tumors were passaged as subcutaneous xenografts in NMRI nu/nu mice. At a tumor volume of 400 to 1000 mm^3, tumor-bearing mice were euthanized, and tumors were collected under sterile conditions without delay. Tumors were mechanically disaggregated and subsequently incubated with an enzyme cocktail consisting of collagenase type IV (41 U/mL), DNase I (125 U/mL), hyaluronidase type III (100 U/mL), and dispase II (1 U/mL) in RPMI 1640 medium at 37° C. for 60 to 120 minutes. Cells were passed through sieves of 100 μm and 40 μm mesh size, and washed with RPMI 1640 medium. The percentage of viable cells was determined in a Neubauer-hemocytometer using trypan blue exclusion. Aliquots of the cells were frozen down and stored in liquid nitrogen vapor phase. On each day of an experiment, a frozen aliquot of tumor cells was thawed and used for preparation of assay plates.
(§4) The clonogenic assay was carried out in a 96 well plate format using ultra low attachment plates. For each test, plates were prepared as follows: each test well contained a layer of semi-solid medium with tumor cells (50 μL), and a second layer of medium supernatant with or without test compound (100 μL). The cell layer consisted of […] to 12.5×10^3 tumor cells per well, which were seeded in 50 μL/well cell culture medium (IMDM, supplemented with 20% (v/v) fetal bovine serum, 50 μg/mL gentamicin, and 0.4% (w/v) agar). After 24 hours, the soft-agar layer was covered with 90 μL of the same culture medium without agar, and 10 μL of control medium or test compound after serial dilution in DMSO for the duration of the experiment (continuous exposure, 100 μL drug overlay).

[2] = tested on: CXF1256 organoid, colon cancer; settings: for Combination activity 5 μM Compound 1 (cAUC % reduction): chemotherapy dose titration + 5 μM Compound 1 vs chemotherapy alone; for Combination activity 20 μM Compound 1 (cAUC % reduction): chemotherapy dose titration + 20 μM Compound 1 vs chemotherapy alone
Protocol: as §1, §2, §3, §4

[3] = tested on: CXF2061 organoid, colon cancer; settings: for Combination activity 5 μM Compound 1 (cAUC % reduction): chemotherapy dose titration + 5 μM Compound 1 vs chemotherapy alone; for Combination activity 20 μM Compound 1 (cAUC % reduction): chemotherapy dose titration + 20 μM Compound 1 vs chemotherapy alone
Protocol: as §1, §2, §3, §4

[4] = tested on: MAXFTN2990 organoid, breast cancer (triple negative)
Protocol: as §1, §2, §3, §4

[5] = tested on: MAXFTN449 organoid, breast cancer (triple negative)
Protocol: as §1, §2, §3, §4

[6] = chemotherapy dose titration + 5 μM Compound 1 vs chemotherapy alone
[7] = chemotherapy dose titration + 20 μM Compound 1 vs chemotherapy alone

O=C1[O][Pt]2([NH][C@@H]3CCCC[C@H]3[NH]2)[O]C1=O [Oxaliplatin, oxaliplatin]
Combination activity 5 μM Compound 1 (cAUC % reduction) [1]: 37% | Combination activity 20 μM Compound 1 (cAUC % reduction) [1]: 9% | Combination activity 5 μM Compound 1 (cAUC % reduction) [2]: 70% | Combination activity 20 μM Compound 1 (cAUC % reduction) [2]: 63% | Combination activity 5 μM Compound 1 (cAUC % reduction) [3]: 13% | Combination activity 20 μM Compound 1 (cAUC % reduction) [3]: −18%

CCc1c2c(nc3ccc(O)cc13)-c1cc3c(c(=O)n1C2)COC(=O)[C@]3(O)CC [SN38]
Combination activity 5 μM Compound 1 (cAUC % reduction) [1]: 44% | Combination activity 20 μM Compound 1 (cAUC % reduction) [1]: 33% | Combination activity 5 μM Compound 1 (cAUC % reduction) [2]: 90% | Combination activity 20 μM Compound 1 (cAUC % reduction) [2]: 91% | Combination activity 5 μM Compound 1 (cAUC % reduction) [3]: 22% | Combination activity 20 μM Compound 1 (cAUC % reduction) [3]: 26% | Combination activity 5 μM Compound 1 (cAUC % reduction) [4, 6]: 57% | Combination activity 20 μM Compound 1 (cAUC % reduction) [4, 7]: 74% | Combination activity 5 μM Compound 1 (cAUC % reduction) [5, 6]: 58% | Combination activity 20 μM Compound 1 (cAUC % reduction) [5, 7]: 46%
